Assay results taken from PubChem BioAssay (NCI).
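GI50 is the concentration that inhibits growth by half. TGI denotes the concentration required for complete inhibition of growth.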

Tests used:
Assay in all cases: DTP human tumour cell line panel, 384-well format
SW-620 colon = system: SW-620 colon
RPMI-8226 leukemia = system: RPMI-8226 leukemia
HS 578T breast = system: HS 578T breast
OVCAR-8 ovarian = system: OVCAR-8 ovarian
HT29 colon = system: HT29 colon
CAKI-1 renal = system: CAKI-1 renal
IGROV1 ovarian = system: IGROV1 ovarian
MALME-3M melanoma = system: MALME-3M melanoma
SF-268 CNS = system: SF-268 CNS
SN12C renal = system: SN12C renal
SK-MEL-5 melanoma = system: SK-MEL-5 melanoma
HCC-2998 colon = system: HCC-2998 colon
SNB-19 CNS = system: SNB-19 CNS
MDA-MB-468 breast = system: MDA-MB-468 breast
NCI-H226 lung = system: NCI-H226 lung
HOP-92 NSCLC = system: HOP-92 NSCLC
DU-145 prostate = system: DU-145 prostate
UO-31 renal = system: UO-31 renal
NCI-H460 NSCLC = system: NCI-H460 NSCLC
SNB-75 CNS = system: SNB-75 CNS
T-47D breast = system: T-47D breast
HL-60(TB) leukemia = system: HL-60(TB) leukemia
MDA-MB-435 melanoma = system: MDA-MB-435 melanoma
HCT-15 colon = system: HCT-15 colon
NCI/ADR-RES ovarian = system: NCI/ADR-RES ovarian
UACC-257 melanoma = system: UACC-257 melanoma
RXF 393 renal = system: RXF 393 renal
OVCAR-4 ovarian = system: OVCAR-4 ovarian
KM12 colon = system: KM12 colon
EKVX NSCLC = system: EKVX NSCLC
OVCAR-3 ovarian = system: OVCAR-3 ovarian
HOP-62 NSCLC = system: HOP-62 NSCLC
OVCAR-5 ovarian = system: OVCAR-5 ovarian
BT-549 breast = system: BT-549 breast
M14 melanoma = system: M14 melanoma
MDA-MB-231 breast = system: MDA-MB-231 breast
SK-MEL-2 melanoma = system: SK-MEL-2 melanoma
A549 NSCLC = system: A549 NSCLC
ACHN renal = system: ACHN renal
A498 renal = system: A498 renal
K-562 leukemia = system: K-562 leukemia
786-0 renal = system: 786-0 renal
UACC-62 melanoma = system: UACC-62 melanoma
PC-3 prostate = system: PC-3 prostate
MOLT-4 leukemia = system: MOLT-4 leukemia
SK-OV-3 ovarian = system: SK-OV-3 ovarian
TK-10 renal = system: TK-10 renal

COc1cc2c(Nc3cc(Cl)c(OC)c(Cl)c3)c(C#N)cnc2cc1OCCCN1CCN(C)CC1
GI50 (SW-620 colon): 1220 nM | TGI (SW-620 colon): 2520 nM | GI50 (RPMI-8226 leukemia): 184 nM | TGI (RPMI-8226 leukemia): 366 nM | GI50 (HS 578T breast): 456 nM | TGI (HS 578T breast): 1350 nM | GI50 (OVCAR-8 ovarian): 389 nM | TGI (OVCAR-8 ovarian): 1530 nM | GI50 (HT29 colon): 1630 nM | TGI (HT29 colon): 4360 nM | GI50 (CAKI-1 renal): 180 nM | TGI (CAKI-1 renal): 1340 nM | GI50 (IGROV1 ovarian): 145 nM | TGI (IGROV1 ovarian): 1030 nM | GI50 (MALME-3M melanoma): 296 nM | TGI (MALME-3M melanoma): 1160 nM | GI50 (SF-268 CNS): 604 nM | TGI (SF-268 CNS): 2060 nM | GI50 (SN12C renal): 321 nM | TGI (SN12C renal): 1430 nM | GI50 (SK-MEL-5 melanoma): 464 nM | TGI (SK-MEL-5 melanoma): 1550 nM | GI50 (HCC-2998 colon): 1060 nM | TGI (HCC-2998 colon): 2260 nM | GI50 (SNB-19 CNS): 1710 nM | TGI (SNB-19 CNS): 3630 nM | GI50 (MDA-MB-468 breast): 288 nM | TGI (MDA-MB-468 breast): 618 nM | GI50 (NCI-H226 lung): 1280 nM | TGI (NCI-H226 lung): 2960 nM | GI50 (HOP-92 NSCLC): 465 nM | TGI (HOP-92 NSCLC): 1490 nM | GI50 (DU-145 prostate): 843 nM | TGI (DU-145 prostate): 2290 nM | GI50 (UO-31 renal): 605 nM | TGI (UO-31 renal): 1850 nM | GI50 (NCI-H460 NSCLC): 1020 nM | TGI (NCI-H460 NSCLC): 2230 nM | GI50 (SNB-75 CNS): 1270 nM | TGI (SNB-75 CNS): 2540 nM | GI50 (T-47D breast): 1330 nM | TGI (T-47D breast): 2630 nM | GI50 (HL-60(TB) leukemia): 795 nM | TGI (HL-60(TB) leukemia): 2060 nM | GI50 (MDA-MB-435 melanoma): 256 nM | TGI (MDA-MB-435 melanoma): 925 nM | GI50 (HCT-15 colon): 878 nM | TGI (HCT-15 colon): 2170 nM | GI50 (NCI/ADR-RES ovarian): 1830 nM | TGI (NCI/ADR-RES ovarian): 3640 nM | GI50 (UACC-257 melanoma): 538 nM | TGI (UACC-257 melanoma): 1640 nM | GI50 (RXF 393 renal): 221 nM | TGI (RXF 393 renal): 677 nM | GI50 (OVCAR-4 ovarian): 808 nM | TGI (OVCAR-4 ovarian): 2170 nM | GI50 (KM12 colon): 412 nM | TGI (KM12 colon): 1580 nM | GI50 (EKVX NSCLC): 404 nM | TGI (EKVX NSCLC): 1740 nM | GI50 (OVCAR-3 ovarian): 323 nM | TGI (OVCAR-3 ovarian): 1280 nM | GI50 (HOP-62 NSCLC): 1090 nM | TGI (HOP-62 NSCLC): 2440 nM | GI50 (OVCAR-5 ovarian): 1200 nM | TGI (OVCAR-5 ovarian): 2700 nM | GI50 (BT-549 breast): 785 nM | TGI (BT-549 breast): 2080 nM | GI50 (M14 melanoma): 191 nM | TGI (M14 melanoma): 633 nM | GI50 (MDA-MB-231 breast): 1360 nM | TGI (MDA-MB-231 breast): 2920 nM | GI50 (SK-MEL-2 melanoma): 456 nM | TGI (SK-MEL-2 melanoma): 1350 nM | GI50 (A549 NSCLC): 1100 nM | TGI (A549 NSCLC): 2370 nM | GI50 (ACHN renal): 257 nM | TGI (ACHN renal): 1500 nM | GI50 (A498 renal): 257 nM | TGI (A498 renal): 1400 nM | GI50 (K-562 leukemia): 166 nM | TGI (K-562 leukemia): 330 nM | GI50 ([…]-0 renal): 672 nM | TGI (786-0 renal): 1990 nM | GI50 (UACC-62 melanoma): 1230 nM | TGI (UACC-62 melanoma): 2480 nM | GI50 (PC-3 prostate): 1320 nM | TGI (PC-3 prostate): 2880 nM | GI50 (MOLT-4 leukemia): 163 nM | TGI (MOLT-4 leukemia): 313 nM | GI50 (SK-OV-3 ovarian): 167 nM | TGI (SK-OV-3 ovarian): 1420 nM | GI50 (TK-10 renal): 381 nM | TGI (TK-10 renal): 1620 nM
